In the first assay the test system is gabapentin binding site. The assay is described as follows: gabapentin binding assay (displacement of gabapentin from its binding site).
Settings: not given
As to the method: Gabapentin is used in the binding assay in order to investigate the binding and affinities of the selected compounds. The affinity of the compounds according to the invention is measured via the displacement of gabapentin from its binding site.
Consider `CC(=Cc1ccccc1)C(O)(c1ccccc1)C(C)CN(C)C` (centres unmarked) [Example 120, 5-dimethylamino-2,4-dimethyl-1,3-diphenyl-pent-1-en-3-ol], for which the “% Inhibition gabapentin, 10 μmole” value stood at 37%.
Same read-out and setting: the result for `CC(=Cc1ccccc1)C(O)(Cc1cccc(C)c1)C(C)CN(C)C` (centres unmarked) [Example 152, 5-dimethylamino-2,4-dimethyl-3-(3-methylbenzyl)-1-phenyl-pent-1-en-3-ol] reads 30%; that for `CC(=Cc1ccccc1)C(O)(Cc1cccc(Cl)c1)C(C)CN(C)C` (centres unmarked) [Example 156, 3-(3-chlorobenzyl)-5-dimethylamino-2,4-dimethyl-1-phenyl-pent-1-en-3-ol], 46%; that for `COc1cccc(CC(O)(C(C)=Cc2ccc(F)cc2)C(C)CN(C)C)c1` (centres unmarked) [Example 184, 5-dimethylamino-1-(4-fluorophenyl)-3-(3-methoxybenzyl)-2,4-dimethyl-pent-1-en-3-ol], 47%.
On to `COc1cccc(CC(O)(C(C)=Cc2ccc(Cl)cc2)C(C)CN(C)C)c1` (centres unmarked) [Example 223, 1-(4-chlorophenyl)-5-dimethylamino-3-(3-methoxybenzyl)-2,4-dimethyl-pent-1-en-3-ol], for which the “% Inhibition gabapentin, 10 μmole” value is recorded as 40%.
`COc1cccc(C=C2CCCCC(CN(C)C)C2(O)c2ccc(Cl)cc2)c1` (centres unmarked) [Example 353, 1-(4-chlorophenyl)-2-dimethylaminomethyl-7-(3-methoxy-benzylidene)-cycloheptanol]: the “% Inhibition gabapentin, 10 μmole” value is 44%.
On the same count and under the same terms, to `COc1ccc(C2(O)C(=Cc3cccc(OC)c3)CCCCC2CN(C)C)cc1` (centres unmarked) [Example 369, 2-dimethylaminomethyl-7-(3-methoxybenzylidene)-1-(4-methoxyphenyl)-cycloheptanol] belongs 43%.

The subject of a further assay is phenylquinone-induced writhing in male NMRI mice. The assay is described as follows: phenylquinone-induced writhing test in mice. The format is in vivo. The following applies: 2.15 mg/kg. As for the experimental part: The investigation of the analgesic efficacy was carried out according to the phenylquinone-induced writhing test in mice (as modified by I. C. Hendershot and J. Forsaith J. Pharmacol. Exp. Ther. 1959 125, 237-240). For this purpose male NMRI mice weighing 25 to 30 g were used. Groups of 10 animals per substance dose received, 10 minutes after intravenous administration of the test substances, 0.3 ml/mouse of a 0.02% aqueous solution of phenylquinone (phenyl benzoquinone, from Sigma, Deisenhofen; solution prepared by addition of 5% of ethanol and storage in a water bath at 45° C.) applied intraperitoneally. The animals were placed individually in observation cages. The number of pain-induced stretching movements (so-called writhing reactions=contortion of the body accompanied by stretching of the rear extremities) was counted using a push-button counter 5 to 20 minutes after administration of the phenylquinone. Animals that had received only physiological saline served as controls. The number of responding animals was determined for some of the examples.
On to `CN(C)CC1CCCCC(=Cc2ccccc2)C1(O)c1cccc(O)c1.Cl` (centres unmarked) [Example 407, 2-benzylidene-7-dimethylaminomethyl-1-(3-hydroxyphenyl)-cycloheptanol, hydrochloride], for which the “Responding Animals/Control Animals (Writhing IV)” value is listed as 6/10 (2.15 mg/kg).

The assay is the same for the next values; noted with them: 10 mg/kg.
As for `COc1cccc(C=C2CCCCC(CN(C)C)C2(O)c2cccc(O)c2)c1.Cl` (centres unmarked) [Example 408, 2-dimethylaminomethyl-1-(3-hydroxyphenyl)-7-(3-methoxy-benzylidene)-cycloheptanol, hydrochloride], the “Responding Animals/Control Animals (Writhing IV)” value is on record as 9/10 (10 mg/kg).
Still for that read-out and setting: to `COc1cccc(C2(O)C(=Cc3ccccc3)CCCCC2CN(C)C)c1.Cl` (centres unmarked) [Example 409, 2-benzylidene-7-dimethylaminomethyl-1-(3-methoxyphenyl)-cycloheptanol, hydrochloride] belongs 5/10 (10 mg/kg).
Same read-out and setting: to `CC(=Cc1ccccc1)C(O)(c1cccc(O)c1)C(C)CCN(C)C.Cl` (centres unmarked) [Example 410, 3-[1-(2-dimethylaminomethyl-1-methylethyl)-1-hydroxy-2-methyl-3-phenyl-allyl]-phenol, hydrochloride] belongs 5/10 (10 mg/kg); to `CC(=Cc1ccccc1)C(O)(Cc1ccc(Cl)cc1)C(C)CN(C)C.Cl` (centres unmarked) [Example 411, 3-(4-chlorobenzyl)-5-dimethylamino-2,4-dimethyl-1-phenyl-pent-1-en-3-ol, hydrochloride], 3/10 (10 mg/kg).
Still for that read-out and setting: the result for `COc1cccc(C(O)(C(C)=Cc2ccccc2)C(C)CN(C)C)c1.Cl` (centres unmarked) [Example 412, 5-dimethylamino-3-(3-methoxyphenyl)-2,4-dimethyl-1-phenyl-pent-1-en-3-ol, hydrochloride] reads 9/10 (10 mg/kg); that for `CN(C)CC1CCCC(=Cc2ccccc2)C1(O)c1cccc(O)c1.Cl` (centres unmarked) [Example 413, 3-(2-benzylidene-6-dimethylaminomethyl-1-hydroxycyclohexyl)-phenol, hydrochloride], 4/10 (10 mg/kg).

Source of the values: patent publication US6815443B2, “5-Amino-1-pentene-3-ol substituted derivatives” (Gruenenthal GmbH, priority 2000, dated 2004).
